Laboratory results reported in ChEMBL document CHEMBL1125858, “Synthesis and biological activity of MK 287 (L-680,573): a potent, specific and orally active paf receptor antagonist” (Bioorg Med Chem Lett, 1991).
Calls of active or inactive are those of the source. The rule behind the calls is not given here.

Key:
[1] = Half-life in rhesus monkeys by intravenous administration of dose; assay type: ADME, organism-based; settings: cercopithecidae, in vivo
Homo sapiens [2] = species on record: Homo sapiens; assay: Compound was tested for human platelet aggregation induced by ADP at concentrations from 1 to 10 uM; NE means no effect; assay type: functional, organism-based
Homo sapiens [3] = species on record: Homo sapiens; assay: Compound was tested for human platelet aggregation induced by thromboxane A2 agonist U-44,069 at concentrations from 1 to 10 uM; NE means no effect; assay type: functional, organism-based
Homo sapiens [4] = species on record: Homo sapiens; assay: Compound was tested for PAF-induced human platelet aggregation in plasma-rich platelets.; assay type: functional, organism-based
[5] = target: C5a anaphylatoxin chemotactic receptor 1 (Homo sapiens) (UniProt P21730); settings: 1 to 10 uM
Description: Compound was tested for it''s ability to inhibit binding of [125I]C5a radioligand to its receptor at a concentration of 1 to 10 uM; NS means no significant inhibition

Homo sapiens [6] = species on record: Homo sapiens; assay: The compound was tested for PAF-induced degranulation in preincubated isolated human neutrophils; assay type: functional
[7] = target: T1, Alpha-2A adrenergic receptor (Bos taurus) (UniProt Q28838); assay: Compound was tested for it's binding affinity towards calf brain alpha 2 receptor at a concentration of 10 uM; NA means no affinity.
T1 sequence (whole entry): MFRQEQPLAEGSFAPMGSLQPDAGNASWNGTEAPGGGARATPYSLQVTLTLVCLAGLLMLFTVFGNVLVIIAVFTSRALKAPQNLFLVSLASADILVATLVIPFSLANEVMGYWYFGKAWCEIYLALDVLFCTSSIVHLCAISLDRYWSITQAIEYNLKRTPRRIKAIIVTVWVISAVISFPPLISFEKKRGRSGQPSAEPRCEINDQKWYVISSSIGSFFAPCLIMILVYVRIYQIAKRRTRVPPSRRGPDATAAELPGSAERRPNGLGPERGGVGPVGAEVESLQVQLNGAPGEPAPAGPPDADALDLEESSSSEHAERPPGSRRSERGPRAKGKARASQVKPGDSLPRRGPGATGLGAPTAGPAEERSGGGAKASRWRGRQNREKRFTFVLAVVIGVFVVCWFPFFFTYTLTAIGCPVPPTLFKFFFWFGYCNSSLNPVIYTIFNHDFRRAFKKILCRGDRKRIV

Cavia porcellus [8] = assay: Compound was tested for it's ability to inhibit PAF-induced bronchoconstriction in female guinea pigs after intravenous dosing; assay type: functional
Homo sapiens [9] = species on record: Homo sapiens; assay: Compound was tested for human platelet aggregation induced by vasopressin at concentrations from 1 to 10 uM; NE means no effect; assay type: functional, organism-based
[10] = target: T2, Alpha-1A adrenergic receptor (Bos taurus) (UniProt P18130); assay: Compound was tested for it's binding affinity towards calf brain alpha 1 receptor at a concentration of 10 uM; NA means no affinity.
T2 sequence (whole entry): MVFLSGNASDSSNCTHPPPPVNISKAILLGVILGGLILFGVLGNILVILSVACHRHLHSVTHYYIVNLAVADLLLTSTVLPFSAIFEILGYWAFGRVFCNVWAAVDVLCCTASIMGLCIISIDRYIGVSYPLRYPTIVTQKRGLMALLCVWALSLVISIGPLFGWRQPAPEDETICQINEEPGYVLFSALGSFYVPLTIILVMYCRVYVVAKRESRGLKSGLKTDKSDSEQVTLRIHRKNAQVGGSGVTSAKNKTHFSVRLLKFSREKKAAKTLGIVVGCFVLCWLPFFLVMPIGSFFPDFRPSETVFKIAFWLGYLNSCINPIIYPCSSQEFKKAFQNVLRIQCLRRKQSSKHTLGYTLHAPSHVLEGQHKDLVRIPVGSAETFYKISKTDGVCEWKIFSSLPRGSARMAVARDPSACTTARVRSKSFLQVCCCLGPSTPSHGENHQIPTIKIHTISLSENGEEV

Rattus norvegicus [11] = assay: In vivo efficacy for inhibition of PAF-induced (10 nM/kg) extravasation in male and female rats in a dose-dependent manner; assay type: functional
[12] = target: Leukotriene B4 receptor 1 (Homo sapiens) (UniProt Q15722); settings: 1 to 10 uM
Cavia porcellus [13] = assay: Compound was tested for it's ability to inhibit PAF-induced bronchoconstriction in male guinea pigs after intravenous dosing; assay type: functional
[14] = target: Beta-2 adrenergic receptor (Cavia porcellus) (UniProt Q8K4Z4); assay: Compound was tested for it's binding affinity towards guinea pig lung Beta-2 adrenergic receptor at a concentration of 10 uM; NA means no affinity.
Rattus norvegicus [15] = assay: In vivo efficacy for increased plasma N-acetyl-beta-D-glucosaminidase (NAGA) activity in male and female rats in a dose-dependent manner; assay type: functional
[16] = target: Beta-1 adrenergic receptor (Cavia porcellus) (UniProt B0FL73); assay: Compound was tested for it's binding affinity towards guinea pig heart Beta-1 adrenergic receptor at a concentration of 10 uM; NA means no affinity.
Homo sapiens [17] = species on record: Homo sapiens; assay: Compound was tested for PAF-induced human platelet aggregation in washed platelets.; assay type: functional, organism-based

Sequence of Beta-2 adrenergic receptor (Cavia porcellus) (Q8K4Z4 whole entry, looked up): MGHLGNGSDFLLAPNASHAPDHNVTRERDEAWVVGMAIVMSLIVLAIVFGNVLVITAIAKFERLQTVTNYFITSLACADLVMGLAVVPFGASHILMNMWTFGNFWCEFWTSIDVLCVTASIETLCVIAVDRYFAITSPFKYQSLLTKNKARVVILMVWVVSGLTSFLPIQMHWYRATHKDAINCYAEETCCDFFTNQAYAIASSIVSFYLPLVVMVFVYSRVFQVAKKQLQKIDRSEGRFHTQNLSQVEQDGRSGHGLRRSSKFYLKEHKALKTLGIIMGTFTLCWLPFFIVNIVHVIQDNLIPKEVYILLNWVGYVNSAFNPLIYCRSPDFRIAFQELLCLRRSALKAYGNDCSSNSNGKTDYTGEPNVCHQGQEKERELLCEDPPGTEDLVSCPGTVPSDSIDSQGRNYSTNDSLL
Sequence of C5a anaphylatoxin chemotactic receptor 1 (Homo sapiens) (P21730 whole entry, looked up): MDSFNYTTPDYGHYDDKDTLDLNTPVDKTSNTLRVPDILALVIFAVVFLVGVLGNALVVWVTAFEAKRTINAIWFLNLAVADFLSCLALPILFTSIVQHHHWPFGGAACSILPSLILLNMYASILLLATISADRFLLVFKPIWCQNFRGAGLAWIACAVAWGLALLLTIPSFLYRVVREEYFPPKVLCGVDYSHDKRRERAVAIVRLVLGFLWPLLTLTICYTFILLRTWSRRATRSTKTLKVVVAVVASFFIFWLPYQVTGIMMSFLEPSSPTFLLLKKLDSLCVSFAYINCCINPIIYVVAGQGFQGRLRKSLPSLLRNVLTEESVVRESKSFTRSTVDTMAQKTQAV
Sequence of Leukotriene B4 receptor 1 (Homo sapiens) (Q15722 whole entry, looked up): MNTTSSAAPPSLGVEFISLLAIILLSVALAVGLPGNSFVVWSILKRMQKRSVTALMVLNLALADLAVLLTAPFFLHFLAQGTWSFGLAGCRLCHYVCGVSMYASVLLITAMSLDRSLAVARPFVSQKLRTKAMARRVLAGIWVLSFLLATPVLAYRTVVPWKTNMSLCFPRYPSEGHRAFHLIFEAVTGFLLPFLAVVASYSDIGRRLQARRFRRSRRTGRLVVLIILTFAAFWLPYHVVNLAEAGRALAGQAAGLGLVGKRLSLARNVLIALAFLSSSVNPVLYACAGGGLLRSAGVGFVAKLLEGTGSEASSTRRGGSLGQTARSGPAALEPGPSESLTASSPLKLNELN
Sequence of Beta-1 adrenergic receptor (Cavia porcellus) (B0FL73 1-467): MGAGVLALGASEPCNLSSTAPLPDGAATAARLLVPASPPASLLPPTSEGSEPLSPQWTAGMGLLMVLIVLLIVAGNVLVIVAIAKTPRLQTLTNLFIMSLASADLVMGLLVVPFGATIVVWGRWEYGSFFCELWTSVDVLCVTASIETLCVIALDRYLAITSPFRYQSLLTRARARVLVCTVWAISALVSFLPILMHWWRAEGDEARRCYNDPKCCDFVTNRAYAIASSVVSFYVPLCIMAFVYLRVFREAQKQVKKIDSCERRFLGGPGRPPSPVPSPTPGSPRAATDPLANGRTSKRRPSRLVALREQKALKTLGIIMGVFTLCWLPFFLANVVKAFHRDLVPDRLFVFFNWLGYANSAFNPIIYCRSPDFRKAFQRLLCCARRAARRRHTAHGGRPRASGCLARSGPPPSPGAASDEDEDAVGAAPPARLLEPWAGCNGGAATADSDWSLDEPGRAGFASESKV

Row | Compound | half-life [1] [min] | Activity (Homo sapiens [2]) | Activity (Homo sapiens [3]) | IC50 (Homo sapiens [4]) [nM] | inhibition [5] | IC50 (Homo sapiens [6]) [nM] | Affinity [7] | ED50 (Cavia porcellus [8]) [mg/kg] | Activity (Homo sapiens [9]) | Affinity [10] | ED50 (Rattus norvegicus [11]) [mg/kg] | inhibition [12] | ED50 (Cavia porcellus [13]) [mg/kg] | Affinity [14] | ED50 (Rattus norvegicus [15]) [mg/kg] | Affinity [16] | IC50 (Homo sapiens [17]) [nM]
1 | COc1cc([C@H]2CC[C@H](c3cc(OC)c(OC)c(OC)c3)O2)cc(OC)c1OC | 14 | – | – | – | – | – | – | – | – | – | – | – | – | – | – | – | –
2 | CCCOc1c(OC)cc([C@@H]2CC[C@@H](c3cc(OC)c(OC)c(OC)c3)O2)cc1S(=O)(=O)CCO | – | inactive | inactive | 56 | inactive | 4 | inactive | 0.1 | inactive | inactive | 2.3 | inactive | 0.19 | inactive | 0.1 | inactive | 1.5
